Measurements from ChEMBL document CHEMBL1201862, “PubChem BioAssay data set” (2004).
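Exposure lasted 48 hours, with cells grown in 96-well plates and compounds tested at five concentrations. Abbreviation: GI50, concentration required for 50% inhibition of growth.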 Calls of active or inactive are those of the source. Rule as the data show it: active = GI50 up to about 1.1 µM and inactive = higher.

Tests used:
Test in all cases: inhibition of tumour cell growth, NCI panel, 48 h
[1] = system: BT-549
[2] = system: HCT-116
[3] = system: K562
[4] = system: LOX IMVI
[5] = system: MCF7
[6] = system: MDA-MB-435
[7] = system: Malme-3M
[8] = system: NCI-H23
[9] = system: NCI/ADR-RES
[10] = system: OVCAR-4
[11] = system: PC-3
[12] = system: SK-MEL-2
[13] = system: SK-MEL-5
[14] = system: SR
[15] = system: T47D
[16] = system: TK-10
[17] = system: U-251
[18] = system: UACC-257
[19] = system: HCC 2998

Row | SMILES | GI50 [1] | GI50 [2] | GI50 [3] | GI50 [4] | GI50 [5] | GI50 [6] | GI50 [7] | GI50 [8] | GI50 [9] | GI50 [10] | GI50 [11] | GI50 [12] | GI50 [13] | GI50 [14] | GI50 [15] | GI50 [16] | GI50 [17] | GI50 [18] | GI50 [19]
1 | N#CC1=C(N)OC2=C(CSc3ccccc32)C1c1ccc(Br)cc1 (configuration not stated) | 10.7 µM (inactive) | 2.96 µM (inactive) | 3.38 µM (inactive) | 2.6 µM (inactive) | 3.42 µM (inactive) | 2.6 µM (inactive) | 13.4 µM (inactive) | 9.75 µM (inactive) | 2.15 µM (inactive) | 5.79 µM (inactive) | 4.42 µM (inactive) | 5.7 µM (inactive) | 11.6 µM (inactive) | 2.54 µM (inactive) | 4.04 µM (inactive) | 13.6 µM (inactive) | 4.65 µM (inactive) | 12.1 µM (inactive) | –
2 | Cc1ccc(C(=O)/C=C2\Nc3ccccc3N=C2NC23CC4CC(CC(C4)C2)C3)cc1 | > 10 µM (inactive) | > 10 µM (inactive) | > 10 µM (inactive) | > 10 µM (inactive) | > 10 µM (inactive) | > 10 µM (inactive) | > 10 µM (inactive) | > 10 µM (inactive) | > 10 µM (inactive) | 7.66 µM (inactive) | > 10 µM (inactive) | – | > 10 µM (inactive) | > 10 µM (inactive) | > 10 µM (inactive) | > 10 µM (inactive) | > 10 µM (inactive) | > 10 µM (inactive) | > 10 µM (inactive)
3 | CCOC(=O)C1=NN(c2ccccc2)C(=O)/C1=C\NC(=S)C(N)=S | 35 µM (inactive) | 20.5 µM (inactive) | 38 µM (inactive) | 37.8 µM (inactive) | 36.1 µM (inactive) | 33.8 µM (inactive) | 45.3 µM (inactive) | 87.1 µM (inactive) | > 100 µM (inactive) | 40.9 µM (inactive) | 47.5 µM (inactive) | 43.1 µM (inactive) | 19.6 µM (inactive) | 35.2 µM (inactive) | 13.1 µM (inactive) | 36.2 µM (inactive) | 42.3 µM (inactive) | 68.5 µM (inactive) | 43.4 µM (inactive)
4 | Nn1c(SCC(=O)NCc2ccccc2)nc2ccccc2c1=O | 73.3 µM (inactive) | 29.4 µM (inactive) | 27.8 µM (inactive) | 49 µM (inactive) | 52.1 µM (inactive) | 45.8 µM (inactive) | 51.2 µM (inactive) | 82.8 µM (inactive) | 36.5 µM (inactive) | 54.2 µM (inactive) | 54.7 µM (inactive) | 76.7 µM (inactive) | 41 µM (inactive) | 21.1 µM (inactive) | > 100 µM (inactive) | 41.5 µM (inactive) | 88.9 µM (inactive) | 58.2 µM (inactive) | 44.8 µM (inactive)
5 | COC(=O)c1c(OC(C)=O)ccc2c1c1c(n2C)C(=O)c2ccccc2C1=O | 17 µM (inactive) | 20.5 µM (inactive) | 66.2 µM (inactive) | – | 18.7 µM (inactive) | 23.9 µM (inactive) | 23.9 µM (inactive) | 19.7 µM (inactive) | 33.9 µM (inactive) | 28.6 µM (inactive) | 27.2 µM (inactive) | 23.2 µM (inactive) | 13.9 µM (inactive) | 31.1 µM (inactive) | 4.81 µM (inactive) | 31 µM (inactive) | 31.3 µM (inactive) | 13.1 µM (inactive) | 26.8 µM (inactive)
6 | COc1cc(/C=C2\C[C@H]3[C@@H]4CCc5cc(OCCN6CCCC6)ccc5[C@H]4CC[C@]3(C)C2=O)cc(OC)c1OC | 15.5 µM (inactive) | 1.54 µM (inactive) | 1.62 µM (inactive) | 1.69 µM (inactive) | 1.65 µM (inactive) | 1.61 µM (inactive) | – | 2.41 µM (inactive) | 1.91 µM (inactive) | 1.6 µM (inactive) | 1.73 µM (inactive) | 2.26 µM (inactive) | 1.53 µM (inactive) | 0.314 µM (active) | 1.95 µM (inactive) | 2.53 µM (inactive) | – | 2.2 µM (inactive) | 1.83 µM (inactive)
7 | CN(NC(=O)c1ccco1)C1=NCCCCN1 | > 100 µM (inactive) | > 100 µM (inactive) | > 100 µM (inactive) | > 100 µM (inactive) | > 100 µM (inactive) | > 100 µM (inactive) | > 100 µM (inactive) | > 100 µM (inactive) | > 100 µM (inactive) | > 100 µM (inactive) | > 100 µM (inactive) | > 100 µM (inactive) | > 100 µM (inactive) | > 100 µM (inactive) | > 100 µM (inactive) | > 100 µM (inactive) | > 100 µM (inactive) | > 100 µM (inactive) | > 100 µM (inactive)
8 | O=C(O)CN1C=C(C(=O)c2cc3ccccc3n2S(=O)(=O)c2ccccc2)CCC1 | 83.2 µM (inactive) | 57.3 µM (inactive) | 24.2 µM (inactive) | 64.9 µM (inactive) | 49.9 µM (inactive) | 43.5 µM (inactive) | 28.4 µM (inactive) | 50.6 µM (inactive) | 66.1 µM (inactive) | 83.9 µM (inactive) | 50.4 µM (inactive) | 87.5 µM (inactive) | 24.9 µM (inactive) | 36.4 µM (inactive) | 28.6 µM (inactive) | > 100 µM (inactive) | 76.7 µM (inactive) | > 100 µM (inactive) | 69.7 µM (inactive)
